Assay results: patent publication US9062041B2 (Bayer Intellectual Property GmbH, priority 2011, dated 2015)

Tests used:
Type in all cases: cell-based
[1] = molecular target: EP4 subtype of the human PGE2 receptor (Homo sapiens, UniProt P35408); assay: cAMP antagonism test on the human EP4 receptor (HTRF cAMP detection); conditions: selectivity towards hEP4, IC50 measured by cAMP antagonism test
Excerpt: 2. Detection of Antagonism to the Human Prostaglandin E2 (Subtype EP4) Receptor Signal
(§1) The binding of PGE2 to the EP4 subtype of the human PGE2 receptor induces the activation of membrane-located adenylate cyclases and leads to the formation of cAMP. In the presence of the phosphodiesterase inhibitor IBMX, the cAMP accumulated owing to this stimulation and released by cell lysis is used in a competitive detection method. In this test, the cAMP present in the lysate competes with a fluorescence-labelled cAMP (cAMP-d2) for binding to an Eu cryptate-labelled anti-cAMP antibody.
(§2) In the absence of cellular cAMP a maximal signal is produced, which is attributable to the binding of this cAMP-d2 molecule to the antibody. After excitation of the […] at 337 nm, there is a fluorescence resonance energy transfer (FRET) to the Eu cryptate molecules of the anti-cAMP antibody (labelled therewith), followed by a long-lasting emission signal at 665 nm (and at […]). Both signals are measured in a suitable measurement instrument with a time delay, i.e. after decay of the background fluorescence. Any increase in the low FRET signal caused by prostaglandin E2 administration (measured as well ratio change=emission665 nm/emission620 nm*10000) indicates the action of antagonists.
2.2.1. Test for Antagonism (Data Per Well of a 384-Well Plate):
(§3) To a test plate with the substance solutions already added (0.05 μl; 100% DMSO, concentration range from 0.8 nM-16.5 μM) were added 4 μl of a cAMP-d2/cell suspension (312500 cells/ml). After a 20-minute preincubation at room temperature (RT), 2 μl of a 3×PGE2 solution (0.3 nM, in PBS-IBMX) were added and incubated in the presence of the agonist for a further 60 mins at RT (volume: ˜6 μl). Next the reaction was stopped by addition of 2 μl of lysis buffer and incubated for a further 20 mins at RT before the actual measurement (volume: ˜8 μl).

[2] = molecular target: EP2 subtype of the human PGE2 receptor (Homo sapiens, UniProt P43116); assay: cAMP antagonism test on the human EP2 receptor (HTRF cAMP detection); conditions: hEP2 receptor, read-out: Antagonism hEP2 IC50
Chain of EP2 subtype of the human PGE2 receptor (P43116 whole entry): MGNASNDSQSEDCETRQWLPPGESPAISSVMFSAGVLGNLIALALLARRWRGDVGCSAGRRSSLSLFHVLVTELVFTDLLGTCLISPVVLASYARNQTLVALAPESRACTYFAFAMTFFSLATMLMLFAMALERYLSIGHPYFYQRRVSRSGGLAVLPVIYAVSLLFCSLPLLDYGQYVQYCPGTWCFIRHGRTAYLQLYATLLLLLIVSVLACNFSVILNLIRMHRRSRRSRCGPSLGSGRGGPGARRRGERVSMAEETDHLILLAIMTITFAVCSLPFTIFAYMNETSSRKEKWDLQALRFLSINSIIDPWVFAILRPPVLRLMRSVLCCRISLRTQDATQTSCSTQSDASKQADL
Excerpt: 1. Detection of Antagonism to the Human Prostaglandin E2 (Subtype EP2) Receptor Signal
as §1, with “EP2” for “EP4”
as §2, with “cellular cAMP,” for “cellular cAMP”
1.2.1. Test for Antagonism (Data Per Well of a 384-Well Plate):
as §3, with “(625000” for “(312500”, “(1.5” for “(0.3”

human PGD receptor = molecular target: T1, human PGD receptor (Homo sapiens, UniProt Q13258); assay: cAMP antagonism test on the human prostaglandin D receptor (HTRF cAMP detection); conditions: selectivity towards hDP, IC50 measured by cAMP antagonism test
T1 sequence (Q13258 1-359): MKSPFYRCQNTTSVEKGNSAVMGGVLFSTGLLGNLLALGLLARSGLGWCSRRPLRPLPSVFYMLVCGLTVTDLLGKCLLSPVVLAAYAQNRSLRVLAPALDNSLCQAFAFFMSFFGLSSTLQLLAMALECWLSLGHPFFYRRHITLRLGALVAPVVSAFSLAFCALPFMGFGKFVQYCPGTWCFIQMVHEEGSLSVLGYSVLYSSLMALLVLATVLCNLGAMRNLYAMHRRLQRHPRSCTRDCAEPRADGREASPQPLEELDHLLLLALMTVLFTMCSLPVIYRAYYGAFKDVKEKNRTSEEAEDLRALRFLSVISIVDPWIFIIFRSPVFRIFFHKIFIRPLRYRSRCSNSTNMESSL
Excerpt: 3. Detection of Antagonism to the Human Prostaglandin D Receptor Signal
as §1, with “of prostaglandin D2” for “of PGE2”, “the” for “the EP4 subtype of the”, “human PGD” for “human PGE2”
as §2, with “cellular cAMP,” for “cellular cAMP”
3.2.1. Test for Antagonism (Data Per Well of a 384-Well Plate):
as §3, with “(625000” for “(312500”, “3×PGD2” for “3×PGE2”, “(6” for “(0.3”, “30” for “60”

Chain of EP4 subtype of the human PGE2 receptor (P35408 whole entry): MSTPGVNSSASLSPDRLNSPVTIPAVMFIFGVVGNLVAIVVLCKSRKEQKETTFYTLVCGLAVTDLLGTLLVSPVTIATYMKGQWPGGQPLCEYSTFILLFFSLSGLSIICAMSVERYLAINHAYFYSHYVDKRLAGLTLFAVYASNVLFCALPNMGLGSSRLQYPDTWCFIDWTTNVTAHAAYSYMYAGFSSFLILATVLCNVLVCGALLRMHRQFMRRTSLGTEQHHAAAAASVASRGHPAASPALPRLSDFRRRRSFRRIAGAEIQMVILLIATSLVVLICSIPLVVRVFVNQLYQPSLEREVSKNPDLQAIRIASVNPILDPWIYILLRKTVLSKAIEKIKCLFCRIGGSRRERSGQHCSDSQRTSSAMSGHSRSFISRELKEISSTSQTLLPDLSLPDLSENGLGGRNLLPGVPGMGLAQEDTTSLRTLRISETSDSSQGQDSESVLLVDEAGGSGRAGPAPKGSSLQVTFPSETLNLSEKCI

| Selectivity hEP2/hEP4 [1] | IC50 [2] | Selectivity hEP2/hDP (human PGD receptor) | SMILES |
| --- | --- | --- | --- |
| xxx (xxx > 100) | 5.59 nM | xxx (xxx > 100) | COCCNC(=O)c1ccc2nn(CC3CCN(C(=O)c4ccc5cc(OC)ccc5c4)CC3)cc2c1C [Example 336, N-(2-methoxyethyl)-2-{[1-(6-methoxy-2-naphthoyl)piperidin-4-yl]methyl}-4-methyl-2H-indazol-5-carboxamide] |
| xxx (xxx > 100) | 52.6 nM | xxx (xxx > 100) | Cc1c(C(=O)NCC2CCCCO2)ccc2nn(CC3CN(C(=O)c4ccc(Cl)cc4)C3)cc12 (single isomer, unassigned) [Example 146, (S or R)-2-{[1-(4-chlorobenzoyl)azetidin-3-yl]methyl}-4-methyl-N-(3,4,5,6-tetrahydro-2H-pyran-2-ylmethyl)-2H-indazol-5-carboxamide] |
| xxx (xxx > 100) | 25.8 nM | xxx (xxx > 100) | COCCNC(=O)c1ccc2nn(CC3CCN(C(=O)c4ccc(OC)cc4F)CC3)cc2c1C [Example 7, 2-{[1-(2-fluoro-4-methoxybenzoyl)piperidin-4-yl]methyl}-N-(2-methoxyethyl)-4-methyl-2H-indazol-5-carboxamide] |
| xxx (xxx > 100) | 7.66 nM | xxx (xxx > 100) | COCCNC(=O)c1ccc2nn(CC3CCN(C(=O)c4ccc(Oc5ccc(OC)cc5)cc4)CC3)cc2c1C [Example 18, N-(2-methoxyethyl)-2-({1-[4-(4-methoxy-phenoxy)benzoyl]-piperidin-4-yl}-methyl)-4-methyl-2H-indazol-5-carboxamide] |
| xxx (xxx > 100) | 13.7 nM | xxx (xxx > 100) | CCOCCNC(=O)c1ccc2nn(CC3CCN(C(=O)c4ccc(Cl)cc4)CC3)cc2c1OC [Example 264, 2-{[1-(4-chlorobenzoyl)piperidin-4-yl]methyl}-N-(2-ethoxyethyl)-4-methoxy-2H-indazol-5-carboxamide] |
| xxx (xxx > 100) | 5.47 nM | xxx (xxx > 100) | COCCNC(=O)c1ccc2nn(CC3CCN(C(=O)c4ccc(Br)c(C)c4)CC3)cc2c1C [Example 332, 2-{[1-(4-bromo-3-methylbenzoyl)piperidin-4-yl]methyl}-N-(2-methoxyethyl)-4-methyl-2H-indazol-5-carboxamide] |
| xxx (xxx > 100) | 16.7 nM | xxx (xxx > 100) | O=C(NCCOCC1CC1)c1ccc2nn(CC3CCN(C(=O)c4ccc(Cl)cc4)CC3)cc2c1OCC(F)(F)F [Example 235, 2-{[1-(4-chlorobenzoyl)piperidin-4-yl]methyl}-N-[2-(cyclopropylmethoxy)-ethyl]-4-(2,2,2-trifluoroethoxy)-2H-indazol-5-carboxamide] |
| xx (xx: 10-100) | 830 nM | xx (xx: 10-100) | COCCNC(=O)c1ccc2nn(CC3CCN(C(=O)c4ccc(-n5cnnc5)cc4)CC3)cc2c1C [Example 52, N-(2-methoxyethyl)-4-methyl-2-((1-[4-(4H-1,2,4-triazol-4-yl)benzoyl]piperidin-4-yl}methyl)-2H-indazol-5-carboxamide] |
| xxx (xxx > 100) | 66 nM | xxx (xxx > 100) | Cc1c(C(=O)NCC(F)(F)F)ccc2nn(CC3CCN(C(=O)c4ncc(-c5ccccc5)o4)CC3)cc12 [Example 309, 4-methyl-2-({1-[(5-phenyloxazol-2-yl)carbonyl]piperidin-4-yl}methyl)-N-(2,2,2-trifluoroethyl)-2H-indazol-5-carboxamide] |
| xxx (xxx > 100) | 19.5 nM | xxx (xxx > 100) | Cc1c(C(=O)NCCSC(F)(F)F)ccc2nn(CC3CN(C(=O)c4ccc(S(F)(F)(F)(F)F)cc4)C3)cc12 [Example 135, 4-methyl-2-({1-[4-(pentafluoro-λ^6-sulphanyl)benzoyl]azetidin-3-yl}methyl)-N-{2-[(trifluoromethyl)sulphanyl]ethyl}-2H-indazol-5-carboxamide] |
| xxx (xxx > 100) | 57.4 nM | xxx (xxx > 100) | Cc1cc2nn(CC3CN(C(=O)c4ccc(OC(F)(F)F)cc4)C3)cc2cc1C(=O)NCCN1CCOCC1 [Example 279, 6-methyl-N-(2-morpholinoethyl)-2-({1-[4-(trifluoromethoxy)benzoyl]azetidin-3-yl}methyl)-2H-indazol-5-carboxamide] |
| xxx (xxx > 100) | 19.3 nM | xxx (xxx > 100) | COCCNC(=O)c1ccc2nn(CC3CCN(C(=O)c4cccc(C)c4)CC3)cc2c1C [Example 27, N-(2-methoxyethyl)-4-methyl-2-{[1-(3-methylbenzoyl)-piperidin-4-yl]-methyl}-2H-indazol-5-carboxamide] |
| xxx (xxx > 100) | 11.6 nM | xxx (xxx > 100) | Cc1c(C(=O)NCCC#N)ccc2nn(CC3CCN(C(=O)c4ccc(-c5ccc(F)cc5)cc4)CC3)cc12 [Example 407, N-(2-cyanoethyl)-2-({1-[(4′-fluorobiphenyl-4-yl)carbonyl]piperidin-4-yl}-methyl)-4-methyl-2H-indazol-5-carboxamide] |
| xxx (xxx > 100) | 6.07 nM | xxx (xxx > 100) | COCCNC(=O)c1ccc2nn(CC3CCN(C(=O)c4ccc(-c5cc(F)cc(F)c5)c(C)c4)CC3)cc2c1C [Example 391, 2-({1-[(3′,5′-difluoro-2-methylbiphenyl-4-yl)carbonyl]piperidin-4-yl}methyl)-N-(2-methoxyethyl)-4-methyl-2H-indazol-5-carboxamide] |
